# According to patent US20180353445A1, “METHODS AND COMPOSITIONS RELATING TO PROTEASOME INHIBITOR RESISTANCE” (Whitehead Institute for Biomedical Research, priority 2017, published 2018):
# “Also recorded” adds a separate entry of the source.
# Assays:
# Format in all cases: cell-based, human
# [1] = test system: T47D cells with doxycycline inducible PSMD2 KD (Lo19S) versus control cells; test: Lo19S T47D drug screen (PSMD2 KD versus control cells, CellTiter-Glo); details: T47D, Lo19S state by dox-inducible PSMD2 shRNA; compound library screen; 72 h; CellTiter-Glo
# Description: The effect of each drug on viability of cells was calculated by averaging the duplicate experiments. The data is plotted in FIG. 16 as the log2 of the ratio of viability of PSMD2 KD versus control cells (log2 (shPSMD2/Control)). […] The Selleck natural product library (NPC) comprising 502 compounds in 5 doses and the. NIH bioactive compound library that includes 731 compounds in 4 doses were also screened using the same system.
# A deeper understanding of the proteasome inhibitor resistant state could yield insights into the molecular mechanisms activated by cells to cope with proteotoxic stress and elucidate new therapeutic strategies for cancer. With these goals in mind, we screened mechanistically diverse small molecule libraries to identify compound sensitivities altered by the Lo19S and Hi-OXPHOS states. An initial screen was conducted in the isogenic T47D model with transient induction of the Lo19S state as described above, We evaluated >4300 mechanistically well-defined compounds within 4 libraries. The compounds included approved cancer drugs (Selleck anti-cancer library: CDL), common natural products (Natural product library: NPC) and an ^-NIH bioactives library (NIH). Each of these compounds was tested at ≥4 concentrations. (Table S5, data not shown), An additional 2866 compounds from the Boston University's Chemical Methodology and Library Development (CMLD-BU) small molecule collection was screened at a single dose (BULL, see Table S5).
# (§1) Generation of the Lo19S T47D cell line—For the generation of the T47D Tet-inducible PSMD2 knockdown cell line—the TRIPZ vector with an inducible shRNA targeting PSMD2 was purchased from Dharmacon (clone V3THS_403760). It was introduced to the T47D cells according to manufactures protocol and cells were selected with puromycin 1 g/ml for one week. The cells were exposed to doxycycline for 24 hours and cells were FACS sorted for the top 10% of most RFP expressing cells (highest expression of shRNA). The cells were further cultured in the absence of doxycycline and PSMD2 knockdown was induced as specified in the text.
# After 48 hours the cells were collected counted and plated (in the absence of dox) at 1000 cells/well in 384-well opaque, white assay plates (Coming, NY), 50 uL per well, and incubated overnight at 37° C./5% CO2. Compound stocks from the Cancer drug library containing 349 bioactive compounds that were arrayed in dose 10 nM, 100 nM, 1 uM, 10 uM (Selleck anti-cancer compound library L3000), the natural products library containing 502 compounds that were utilized in 5 doses (dilution of 1:1000 of 2ug/ml, 0.2 ug/ml, 0.002/ug/ml, 0.0002 ug/ml), the NIH bioactive library including 731 drugs in dose of 10 nM, 100 nM, 1 uM, 10 uM and the Boston University's CMLD (Chemical Methodology and Library Development) compound deck containing 2866 compounds in one dose (10 uM), including novel chemotypes that uniquely probe three-dimensional space by employing stereochemical and positional variation within the molecular framework as diversity elements in library design. 50 nl of compounds were pin-transferred (V&P Scientific, CA, pin tool mounted onto Tecan Freedom Evo 150 MCA96 head, Tecan, Calif.) into duplicate assay plates and incubated for 72 h. The DMSO content was 0.1% within each well, Per plate, there are 32 wells of DMSO vehicle control and 32 wells of positive control compounds. After three days of incubation, 10 uL of CellTiter-Glo (Promega, Wis.) was added to each well, incubated for 10 minutes and the luminescence output was read on the M1000 Infinite Pro plate reader (Tecan, Calif.).
# T47D cells [2] = test: The glucose/galactose drug screen; details: for relative viability change of cells grown in glucose versus galactose: 10 mM Glucose or Galactose, Selleck anti cancer and natural product libraries
# Description: We conducted a second set of drug screens to identify unique sensitivities conferred by the Hi-OXPHOS state using parental T47D breast cancer cells (without 19S subunit suppression). For this screen, we used the NPC and CDL libraries as they contained the greatest number of hits in the Lo19S screen. We tested over 800 compounds at multiple concentrations and measured their effects on relative cell growth/viability when cells were grown under aerobic glycolysis conditions (glucose-supplemented medium) or forced mitochondrial respiration conditions (galactose-supplemented medium).
# The glucose/galactose drug screen—T47D cells growing in regular media were collected counted and after centrifugation cells were re-suspended in RPM1 media without glucose containing 10% dialyzed serum with the addition of either 10 mM glucose or 10 mM galactose, Cells were then plated at 1000 cells/well in 384-well opaque, white assay plates (Coming, N.Y.), 50 uL per well, and incubated overnight at 37°C./5% CO2. Application of the drug libraries and cell viability was executed as described above for the Lo19S drug screen.
# T47D cells [3] = test: Competition co-culture of TurboRFP PSMD2 shRNA and GFP control shRNA T47D cells, FACS/microscopy; details: 1:10 plating ratio, panel of proteasome inhibitors
# Description: We created two cell lines—one line that expresses red fluorescent protein (turboRFP) and the doxycycline-inducible PSMD2-targeting shRNA and another line that expresses green fluorescent protein (GFP) and a doxycycline-inducible control shRNA (FIG. 6A). First, we induced shRNA expression with doxycycline for 48 hours. After recovery, we mixed shPSMD2-RFP and shControl-GFP cells at different ratios (either 1:1, 1:2, 1:5 or 1:10), adding the cells with reduced PSMD2 as the minority subpopulation. Twenty-four hours after plating, we treated these mixed populations of cells for 48 hours with increasing concentrations of bortezomib (5, 7.5 or 10 nM). We allowed the cells to recover in the absence of bortezomib and then we quantified the red and green cells by FACS analysis (FIG. 6A) and captured representative images by fluorescence microscopy (FIG. 6B),
# The experiment described in Example 10 was repeated with minor differences using a panel of different proteasome inhibitors: MLN2238, MLN9708, and oprozomib T47D cells harboring a doxycycline inducible control shRNA (GFP) or a doxycycline-inducible PSMD2 shRNA (TurboRFP) were incubated with doxycycline for 3 days. Cells were collected, counted, and plated at a 1:10 ratio of TurboRFP-expressing PSMD2 shRNA cells/GFP expression control shRNA cells in the absence of Dox. Proteasome inhibitors were added at the specified concentrations and cells were maintained in culture. Cells were allowed to recover in the absence of the proteasome inhibitor and then analyzed by FACS (FIG. 8B, top) or visualized by microscopy (FIG. 8B, bottom). In the absence of proteasome inhibitors, the initial plating ratio of these cells (1:10) was maintained over the duration of the experiment (FIG. 8B). […]
# Visualization and FACS analysis of GFP/RFP levels—cells were trypsinized in 100 μL Accumax® solution and further diluted into 100 μl PBSx1. The number of cells with red or areen fluorescent proteins was measured by MACSQuant® VYB according to manufactures protocol. […]
# [4] = test system: IMR32 (reduced PSMD5) and Kelly neuroblastoma cells; test: Viability of IMR32 versus Kelly neuroblastoma cells (CellTiter-Glo); details: other experiments, e.g., 0.1 uM
# T47D cells [5] = test: Drug library screen (Selleck anti-cancer, NPC, NIH bioactive), PSMD2 KD vs control T47D cells
# Description: Schematic representation of the drug screen setup. (FIG. 37A) 147D cells harboring a doxycycline-inducible PSMD2 shRNA were grown in the presence or absence of doxycycline for 48 hr. Cells were then collected, washed, and plated in the absence of doxycycline for 24 hr prior to exposure different compounds. Relative cell numbers were measured 3 days later.
# The relative viability of the Lo19S versus control cells was calculated for replica experiments and the log2 of the ratio is plotted. […] The relative viability of the respiring cells (Hi-OXPHOS) (gal) versus the control cells (glu) was calculated for replica experiments and the log2 of the ratio is plotted.
# After 48 hours the cells were collected, counted, and plated at 1000 cells/well in 384 well plates in duplicates for each cell line. Compounds from the Selleck Chemicals anti-cancer compound library (349 drugs in 4 concentrations; […]) were pinned the next day and viability was measured after 72 hours by the reduction of Resazurin (Ex=530 run, Em=590nin). (See FIG. 37A for schematic of screen.)
# [6] = test system: IMR32 (reduced PSMD5) and Kelly neuroblastoma cells; test: Viability of IMR32 versus Kelly neuroblastoma cells (CellTiter-Glo); details: 72 hours after addition; CellTiter-Glo
# Description: To determine whether these compounds also differentially affect cells with reduced expression of PSDMS, IMR32 and Kelly cells were each cultured in the presence of ABT-263, disulfiram, or elesclomol across a range of concentrations. Cell viability was measured by CellTiter-Glo® Luminescent Cell Viability Assay 72 hours after addition of the compound to cells. The fold viability relative to culture in the absence of the compound was determined for each cell line. […] In the experiment shown in FIG. 24, the lowest lower concentration of ABT-263 and disulfiram tested was 1 uM.
# ABT-263 targets several members of the BCL2 family, including BCL2 and BCL-XL.
# T47D cells [7] = test: Cell viability, T47D cells with doxycycline-inducible PSMD2 shRNA (KD) vs control; details: T47D, transient PSMD2 reduction
# Description: FIGS. 37A-37E: Subunit suppression results in highly specific drug sensitivity alteration. Schematic representation of the drug screen setup. (FIG. 37A) 147D cells harboring a doxycycline-inducible PSMD2 shRNA were grown in the presence or absence of doxycycline for 48 hr. Cells were then collected, washed, and plated in the absence of doxycycline for 24 hr prior to exposure different compounds. Relative cell numbers were measured 3 days later. […] (FIGS. 37C-37E) The relative viability of the PSMD2 knockdown (KD) versus the control was calculated for replica experiments and the log2 of the ratio is plotted for 349 compounds from the Selleck anti-cancer L3000 drug library that were tested in 4 concentrations (FIG. 37C), the Selleck natural product library (NPC) comprising 502 compounds in 5 doses (FIG. 37D), and the NIH bioactive compound library that includes 731 compounds in 4 doses (FIG. 37E). Specific compounds are annotated.
# The effect of transient PSMD2 reduction on growth of T47D cells in the presence of different proteasome inhibitors (bortezomib, MLN9708, carfilzomib, oprozornib) was tested. T47D cells harboring a doxycycline inducible control shRNA (GFP) or a doxycycline-inducible PSMD2 shRNA (TurhoRFP) were incubated with doxycycline for 3 days. Cells were then split and grown in the absence of Dox and proteasome inhibitors were then added at various concentrations. Cells were maintained in culture and then counted.
# as §1, with “For” for “Generation of the Lo19S T47D cell line—For”, “line- the” for “line—the”, “Dhannacon” for “Dharmacon”, “μg/ml” for “g/ml”, “relevant Examples. The TRIPZ control GFP vector was created by removing the turboRFP from the TRIPZ control vector by digestion with Agel and ClaI and replacing it with GFP amplified with primers flanking with Agel and Clal restriction sites.” for “text.”
# Cell Viability Assay—Relative cell growth and survival were measured in 96-well microplate format in the shRNA experiments and in 384 well format in the drug toxicity assays, by using the fluorescent detection of resazurin dye reduction as an endpoint (544 nm excitation and 590 run emission). 2,500 cells in 96 wells format or 1,000 cells in 384 well format were plated 24 hours before compound exposure (for 72 hours or indicated time). Each analysis was performed at least with three replicas.
Structure (SMILES),viability of PSMD2 KD versus control cells (log2 (shPSMD2/Control)) [1],relative viability change of cells grown in glucose versus galactose (T47D cells [2]),shift of surviving population toward PSMD2 shRNA cells (T47D cells [3]),toxicity at lower concentrations than 1 uM [4],sensitivity of proteasome inhibitor resistant cancer cells vs sensitive counterpart cells (T47D cells [5]),growth inhibition of T47D cells with reduced level of PSMD2 vs control T47D cells (T47D cells [5]; Selleck anti-cancer compound library screen),number of concentrations at which respiring cells were preferentially targeted (T47D cells [2]; galactose versus glucose) [concentrations],sensitivity of IMR32 cells relative to Kelly cells (fold viability) [6],resistance of cells harboring PSMD2 shRNA vs parental line (EC50) (T47D cells [7])
CC(C)C[C@H](NC(=O)CNC(=O)c1cc(Cl)ccc1Cl)B(O)O [MLN2238],selectively reduce viability of control cells versus PSMD2 KD cells,strongest hits in this screen,substantially shifted the populations of surviving cells,,,,,,
"CCN(CC)C(=S)SSC(=S)N(CC)CC [disulfiram, tetraethylthiuram disulfide]",selectively reduce the viability of PSMD2 KD cells versus control cells; also recorded: selectively sensitized cells; also recorded: highly effective in slowing the growth of cells in the Lo19S state,cells that respire are predominantly sensitive; also recorded: preferentially targeted respiring cells; also recorded: more potent in cells in the Hi-OXPHOS state,,a similar level of toxicity was observed,highly sensitive,selectively inhibit growth,4,dramatically more sensitive,
COC[C@H](NC(=O)c1cnc(C)s1)C(=O)N[C@@H](COC)C(=O)N[C@@H](Cc1ccccc1)C(=O)[C@@]1(C)CO1 [oprozomib],,,substantially shifted the populations of surviving cells,,,,,,EC50 values increased considerably
